Laboratory results: PubChem BioAssay (NCI)
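Results reflect a 48-hour exposure of cells in 96-well plates to compound at five concentrations. GI50: concentration for 50% inhibition of growth. TGI: total growth inhibition.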

Key:
Assay in all cases: NCI tumour cell line growth inhibition, 48 h
MOLT-4 leukemia = test system: MOLT-4 leukemia
M14 melanoma = test system: M14 melanoma
A549 NSCLC = test system: A549 NSCLC
TK-10 renal = test system: TK-10 renal
BT-549 breast = test system: BT-549 breast
OVCAR-3 ovarian = test system: OVCAR-3 ovarian
HOP-92 NSCLC = test system: HOP-92 NSCLC
IGROV1 ovarian = test system: IGROV1 ovarian
SF-268 CNS = test system: SF-268 CNS
PC-3 prostate = test system: PC-3 prostate

Row | Compound | GI50 (MOLT-4 leukemia) | TGI (MOLT-4 leukemia) | GI50 (M14 melanoma) | TGI (M14 melanoma) | GI50 (A549 NSCLC) | TGI (A549 NSCLC) | GI50 (TK-10 renal) | TGI (TK-10 renal) | GI50 (BT-549 breast) | TGI (BT-549 breast) | GI50 (OVCAR-3 ovarian) | TGI (OVCAR-3 ovarian) | GI50 (HOP-92 NSCLC) | TGI (HOP-92 NSCLC) | GI50 (IGROV1 ovarian) | TGI (IGROV1 ovarian) | GI50 (SF-268 CNS) | TGI (SF-268 CNS) | GI50 (PC-3 prostate) | TGI (PC-3 prostate)
1 | Cn1cnc([N+](=O)[O-])c1S(=O)(=O)Oc1cccc2ccccc12 | 3.37 µM | 22.7 µM | 3.17 µM | 10.2 µM | 17.5 µM | 52.4 µM | 1.59 µM | 2.98 µM | 14.4 µM | 30.7 µM | 1.89 µM | 3.96 µM | 2.6 µM | 11.5 µM | 2.14 µM | 5.09 µM | 7.06 µM | 33.4 µM | 8.43 µM | 44.4 µM
2 | COC1=CC(=O)C(C2CC(=O)c3c(O)cc(O)cc3O2)=CC1=O (stereo not given) |  | 5.12 µM |  | 35.1 µM |  | > 72.6 µM |  | 31.8 µM |  | 42.9 µM |  | 39.9 µM |  | 17.6 µM |  | 33.6 µM |  | 38.7 µM |  | 31.1 µM
3 | COc1c(Cl)c(=O)oc2ccc(Cl)cc12 |  | > 100 µM |  | > 100 µM |  | > 100 µM |  | > 100 µM |  | > 100 µM |  | > 100 µM |  | > 100 µM |  | > 100 µM |  | > 100 µM |  | > 100 µM
4 | OCc1ccc(-c2ccc(-c3ccc(CO)s3)o2)s1 |  | 71.5 µM |  | > 84.3 µM |  | 48.1 µM |  | 0.171 µM |  | 50.7 µM |  | 0.791 µM |  | 91.2 µM |  | 0.676 µM |  | > 97.1 µM |  | > 100 µM
5 | OC(c1nc2ccccc2[nH]1)C(O)C(O)C(O)c1nc2ccccc2[nH]1 (stereo not given) |  | > 100 µM |  | > 100 µM |  | > 100 µM |  | > 100 µM |  | > 100 µM |  | > 100 µM |  | > 100 µM |  | > 100 µM |  | > 100 µM |  | > 100 µM
6 | Cc1cc2c(cc1Cl)SC(N(N(C)C)S(=O)(=O)c1ccc(Cl)cc1)=NS2(=O)=O | 35 µM | > 100 µM | 27.8 µM | > 100 µM | 20.3 µM | > 100 µM | 43.9 µM | > 100 µM | 19.4 µM | 48.7 µM | 24 µM | 61.6 µM | 14.8 µM | 35.3 µM | 31.8 µM | > 100 µM | 32.4 µM | > 100 µM | 22.4 µM | > 100 µM
7 | NS(=O)(=O)c1cc(Br)c(N=Nc2ccc(O)c3ncccc23)c(Br)c1 |  | > 100 µM |  | 76.8 µM |  | 60.7 µM |  | > 100 µM |  | > 100 µM |  | > 100 µM |  | > 100 µM |  | > 100 µM |  | > 100 µM |  | > 100 µM
8 | O=C(/C=C/c1ccc(Cl)cc1)c1ccc(Nc2ccnc3cc(Cl)ccc23)cc1 | 5.46 µM | > 100 µM | 26.8 µM | > 100 µM | > 100 µM | > 100 µM | > 84.7 µM | > 100 µM | 29.3 µM | > 100 µM | 32 µM | > 100 µM | > 40.6 µM | > 100 µM | 48.6 µM | > 100 µM | > 84 µM | > 100 µM | > 53.6 µM | > 100 µM
9 | COc1cc(/C=C/c2cc(O)c(C(C)=O)c(O)c2)cc2c1O[C@]1(C)CC[C@@H](O)C(C)(C)[C@H]1C2 | 3.22 µM | 34.7 µM | 5.12 µM | 49.4 µM | 8.54 µM | > 100 µM | 22.2 µM | > 100 µM | 3.03 µM | 27.6 µM | 4.67 µM | 53.9 µM | 3.2 µM | 61.6 µM | 6.44 µM | 69 µM | 5.86 µM | 55.2 µM | 3.75 µM | > 100 µM
10 | NC1(C(=O)OCc2ccccc2)CCCC1 |  | 83 µM |  | 35.2 µM |  | > 100 µM |  | > 100 µM |  | 33.8 µM |  | 28.7 µM |  | 38.4 µM |  | 38.8 µM |  | 31.4 µM |  | > 100 µM
11 | COc1ccc(/C=C(/C#N)n2nnc3cccc(F)c32)cc1 | 0.68 µM | > 100 µM | 0.467 µM | 3.89 µM | 1.46 µM | > 100 µM | 3.18 µM | 47.2 µM | 2.39 µM | 52.9 µM | 0.316 µM | 0.899 µM | 0.546 µM | 3.23 µM | 0.759 µM | 16.3 µM | 2.31 µM | > 100 µM | 1.63 µM | > 100 µM
12 | Cc1c2c(nn1-c1ccc(S(=O)(=O)/N=C3\SCCC(=O)N3c3ccccc3)cc1)-c1ccccc1CC2 | > 100 µM | > 100 µM | > 100 µM | > 100 µM | > 100 µM | > 100 µM | > 100 µM | > 100 µM | > 100 µM | > 100 µM | > 100 µM | > 100 µM | 81.2 µM | > 100 µM | > 100 µM | > 100 µM | 35 µM | > 100 µM | > 100 µM | > 100 µM
13 | Cc1cc(-c2ccc3nc(C4CCOCC4)n(CCOC(F)(F)F)c3c2)cn(C)c1=O | 0.588 µM | 17.5 µM |  |  | 0.48 µM |  |  | 4.64 µM | 3.99 µM | > 80.4 µM |  | 3.94 µM | 0.182 µM | 36.6 µM |  | 6.91 µM | 1.65 µM | 80.2 µM | 1.04 µM | 
14 | COc1ccc([C@H]2[C@@H](F)C(=O)N2c2cc(OC)c(OC)c(OC)c2)cc1F | 0.146 µM | 93.4 µM |  |  | 0.394 µM | > 100 µM | 38.6 µM | > 100 µM | 0.0498 µM | 33.8 µM | 0.0465 µM | 0.492 µM | 0.266 µM | 63.9 µM | 0.0946 µM | > 100 µM | 0.324 µM | > 100 µM | 0.042 µM | > 100 µM
15 | N#CC(C#N)=CNC(N)=S |  | > 100 µM |  | > 100 µM |  | > 100 µM |  |  |  | > 100 µM |  | > 100 µM |  | > 100 µM |  | > 100 µM |  | > 100 µM |  | > 100 µM
